Experimental data reported in PMC11110727, “Exploiting thiol-functionalized benzosiloxaboroles for achieving diverse substitution patterns – synthesis, characterization and biological evaluation of promising antibacterial agents” (RSC Medicinal Chemistry, 2024).
Values after ≈ are worked out from the molar mass of the structure shown.

Experiments:
[1] = test system: S. maltophilia ATCC 13637; experiment: Antibacterial activity: MIC/MBC, MIC with PAβN, disc-diffusion; format: cell-based, Stenotrophomonas maltophilia; conditions: S. maltophilia ATCC 13637; for MIC: read-out: MIC
Summary of the method: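 Strains were subcultured twice on TSA at 30 °C. They were then tested by disc diffusion (EUCAST/CLSI), by CLSI broth-microdilution MIC in Mueller–Hinton II broth and by CLSI MBC, with compounds in DMSO.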

P. mirabilis ATCC 12453 = experiment: as above; format: cell-based, Proteus mirabilis; conditions: P. mirabilis ATCC 12453; for MIC: Proteus mirabilis, ATCC12453, read-out: MIC
Experimental: Direct antimicrobial activity was determined against the following standard strains: (1) Gram-positive cocci: methicillin-sensitive Staphylococcus aureus ATCC 6538P (MSSA), methicillin-resistant S. aureus subsp. aureus ATCC 43300 (MRSA), S. epidermidis ATCC 12228, Enterococcus faecium ATCC 6057, E. faecalis ATCC 29212, Bacillus subtilis ATCC 6633; (2) Gram-negative bacteria from Enterobacteriales order: Klebsiella pneumoniae ATCC 13883, Escherichia coli ATCC 25922, Enterobacter cloacae DSM 6234, Proteus mirabilis ATCC 12453, Serratia marcescens ATCC 13880; (3) Gram-negative non-fermentative rods: Acinetobacter baumannii ATCC 19606, Pseudomonas aeruginosa ATCC 27853, Stenotrophomonas maltophilia ATCC 12714, S. maltophilia ATCC 13637, Burkholderia cepacia ATCC 25416, Bordetella bronchiseptica ATCC 4617; (4) yeasts: Candida albicans ATCC 90028, C. krusei ATCC 6258, C. parapsilosis ATCC 22019, C. tropicalis (Castellani) Berkhout ATCC 750, C. tropicalis IBA 171, C. guilliermondii IBA 155, and Saccharomyces cerevisiae ATCC 9763. Moreover, 5 clinical strains of methicillin-resistant S. aureus were also included: NMI 664 K, NMI 1576 K, NMI 1712 K, NMI 1991 K, and NMI 2541 K. All strains were stored at −80 °C. Prior to testing, each bacterial strain was subcultured twice on tryptic soy agar TSA (bioMerieux) medium and yeast strains on Sabouraud dextrose agar (bioMerieux) for 24–48 h at 30 °C to ensure viability. The antimicrobial activity was evaluated as previously described[26] by the disc-diffusion method and the MIC determination assays according to the EUCAST (ref. [71] and [72]) and CLSI (ref. [53] and [73]) recommendations. Assessment of bactericidal (MBC) and fungicidal (MFC) activities was performed according to the CLSI recommendations.[54,74] […] The new benzosiloxaboroles were dissolved in DMSO (Sigma).
Considering that the MDR efflux pumps often contribute to Gram-negative rod resistance, the MIC values of studied agents, with or without the pump inhibitor, PAβN (20 μg mL^−1) (Sigma), were determined.[75] The MIC was determined using Mueller–Hinton II broth medium (MHB) (Becton Dickinson) by the broth microdilution method, according to the CLSI guideliness.[53] To minimize the influence of PAβN on the destabilization of bacterial cell covers, the tests were conducted in the presence of 1 mM MgSO4 (Sigma).[76] At least a 4-fold reduction in the MIC value after the addition of PAβN was considered significant.[56,77]

[2] = test system: Human normal lung fibroblasts MRC-5; experiment: MTT-based viability (cytotoxicity) assay; conditions: for IC50: Homo sapiens, MRC5, 48 h
Experimental: To evaluate the cytotoxic effect of the tested compounds, an MTT-based assay was performed. […] Moreover, based on available IC50 and MIC (for standard and clinical S. aureus MRSA strains) values, the selectivity index (SI) was calculated for several compounds as the IC50/MIC ratio (Table 5).[60]
MRC-5 pd30 human fibroblasts (ECACC) were cultured in MEME, Minimum Essential Medium Eagle (Merck), supplemented with 10% fetal bovine serum (Merck), 2 mM L-glutamine, antibiotics (100 U mL^−1 penicillin, 100 μg mL^−1 streptomycin, Merck) and 1% non-essential amino acids (Merck). Cells were grown in 75 cm^2 cell culture flasks (Sarstedt), in a humidified atmosphere of CO2/air (5/95%) at 37 °C. MTT-based viability assay was conducted as described previously.[26] Optical densities were measured at 570 nm using a BioTek microplate reader. All measurements were carried out in three replicates and the results expressed as a percent of viable cells versus control cells. […] The selectivity index (SI) was calculated as [drawing 30] , in accordance with previously described protocols.[60]

[3] = Stenotrophomonas maltophilia, ATCC13637
[4] = (-) = zone not observed, paper discs 9 mm
[5] = PAβN 20 μg mL^−1, MHB + 1 mM MgSO4

C[Si]1(C)OB(O)c2cc(F)c(SCCC(N)=O)c(F)c21 [Compound 7, 3-((5,7-Difluoro-3-hydroxy-1,1-dimethyl-1,3-dihydrobenzo[c][1,2,5]oxasilaborol-6-yl)thio)propanamide]
MIC [1, 3]: > 400 µg/mL
MIC (P. mirabilis ATCC 12453): > 400 µg/mL

C[Si]1(C)OB(O)c2cc(F)c(S(N)(=O)=O)c(F)c21 [Compound 27, 5,7-Difluoro-3-hydroxy-1,1-dimethyl-1,3-dihydrobenzo[c][1,2,5]oxasilaborole-6-sulfonamide]
viability of MRC-5 ([2]; 6.25 µg·mL−1, 48 h): 74.1±3.1 % of control ± SD
viability of MRC-5 ([2]; 12.5 µg·mL−1, 48 h): 74.1±1.4 % of control ± SD
viability of MRC-5 ([2]; 25 µg·mL−1, 48 h): 79.3±9.5 % of control ± SD
viability of MRC-5 ([2]; 50 µg·mL−1, 48 h): 79.7±7.5 % of control ± SD
viability of MRC-5 ([2]; 100 µg·mL−1, 48 h): 74.3±7.9 % of control ± SD
viability of MRC-5 ([2]; 200 µg·mL−1, 48 h): 68.5±3.4 % of control ± SD
viability of MRC-5 ([2]; 400 µg·mL−1, 48 h): 66.2±2.4 % of control ± SD
IC50 [2]: > 400 µg/mL
MIC [1, 3]: > 400 µg/mL
MIC (P. mirabilis ATCC 12453): > 400 µg/mL

Cc1cc(NC(=O)CCSc2c(F)cc3c(c2F)[Si](C)(C)OB3O)no1 [Compound 11, 3-((5,7-Difluoro-3-hydroxy-1,1-dimethyl-1,3-dihydrobenzo[c][1,2,5]oxasilaborol-6-yl)thio)-N-(5-methylisoxazol-3-yl)propanamide]
MIC [1, 3]: > 400 µg/mL
MIC (P. mirabilis ATCC 12453): > 400 µg/mL

C[Si]1(C)OB(O)c2cc(F)c(SCCC(=O)ON3C(=O)CCC3=O)c(F)c21 [Compound 5, 2,5-Dioxopyrrolidin-1-yl 3-((5,7-difluoro-3-hydroxy-1,1-dimethyl-1,3-dihydrobenzo-[c][1,2,5]oxasilaborol-6-yl)thio)propanoate]
MIC [1, 3]: > 400 µg/mL
MIC (P. mirabilis ATCC 12453): > 400 µg/mL

CC(=O)CCSc1c(F)cc2c(c1F)[Si](C)(C)OB2O [Compound 3, 4-((5,7-Difluoro-3-hydroxy-1,1-dimethyl-1,3-dihydrobenzo[c][1,2,5]oxasilaborol-6-yl)thio)butan-2-one]
MIC [1, 3]: 400 µg/mL (≈ 1260 µM)
MIC (P. mirabilis ATCC 12453): > 400 µg/mL

C[Si]1(C)OB(O)c2ccc(SC3CC(=O)N(c4ccc(F)cc4)C3=O)c(F)c21 (stereo not shown) [Compound 15, 3-((7-Fluoro-3-hydroxy-1,1-dimethyl-1,3-dihydrobenzo[c][1,2,5]oxasilaborol-6-yl)thio)-1-(4-fluorophenyl)pyrrolidine-2,5-dione]
viability of MRC-5 ([2]; 6.25 µg·mL−1, 48 h): 89.2±0.3 % of control ± SD
viability of MRC-5 ([2]; 12.5 µg·mL−1, 48 h): 77.9±4.3 % of control ± SD
viability of MRC-5 ([2]; 25 µg·mL−1, 48 h): 73.7±0.8 % of control ± SD
viability of MRC-5 ([2]; 50 µg·mL−1, 48 h): 69.9±1.8 % of control ± SD
viability of MRC-5 ([2]; 100 µg·mL−1, 48 h): 65.0±0.1 % of control ± SD
viability of MRC-5 ([2]; 200 µg·mL−1, 48 h): 41.5±0.7 % of control ± SD
viability of MRC-5 ([2]; 400 µg·mL−1, 48 h): 6.7±0.1 % of control ± SD
IC50 [2]: 145 µg/mL (≈ 346 µM)
MIC [1, 3]: > 200 µg/mL
MIC (P. mirabilis ATCC 12453): > 200 µg/mL

C[Si]1(C)OB(O)c2ccc(S)c(F)c21 [Compound 2e, 7-Fluoro-6-mercapto-1,1-dimethylbenzo[c][1,2,5]oxasilaborol-3(1H)-ol]
MIC [1, 3]: > 100 µg/mL
MIC (P. mirabilis ATCC 12453): > 100 µg/mL

C[Si]1(C)OB(O)c2cc(F)c(S(=O)(=O)Cl)c(F)c21 [Compound 26, 5,7-Difluoro-3-hydroxy-1,1-dimethyl-1,3-dihydrobenzo[c][1,2,5]oxasilaborole-6-sulfonyl chloride]
MIC [1, 3]: > 400 µg/mL
MIC (P. mirabilis ATCC 12453): > 400 µg/mL

C[Si]1(C)OB(O)c2ccc(SCCS(=O)(=O)c3ccccc3)c(F)c21 [Compound 21, 7-Fluoro-1,1-dimethyl-6-((2-(phenylsulfonyl)ethyl)thio)benzo[c][1,2,5]oxasilaborol-3(1H)-ol]
MIC [1, 3]: > 400 µg/mL
MIC (P. mirabilis ATCC 12453): > 400 µg/mL

C[Si]1(C)OB(O)c2cc(F)c(SCCC(=O)N3CCOCC3)c(F)c21 [Compound 8, 3-((5,7-Difluoro-3-hydroxy-1,1-dimethyl-1,3-dihydrobenzo[c][1,2,5]oxasilaborol-6-yl)thio)-1-morpholinopropan-1-one]
MIC [1, 3]: > 400 µg/mL
MIC (P. mirabilis ATCC 12453): > 400 µg/mL

C[Si]1(C)OB(O)c2cc(F)c(S)c(F)c21 [Compound 1e, 5,7-Difluoro-6-mercapto-1,1-dimethylbenzo[c][1,2,5]oxasilaborol-3(1H)-ol]
MIC [1, 3]: > 400 µg/mL
MIC (P. mirabilis ATCC 12453): > 400 µg/mL

C[Si]1(C)OB(O)c2cc(F)c(SCCC(=O)OCCCCCC[n+]3ccccc3)c(F)c21 [Compound 18, 1-(6-((3-((5,7-difluoro-3-hydroxy-1,1-dimethyl-1,3-dihydrobenzo[c][1,2,5]oxasilaborol-6-yl)thio)propanoyl)oxy)hexyl)pyridin-1-ium trifluoromethanesulfonate]
MIC [1, 3]: > 400 µg/mL
MIC (P. mirabilis ATCC 12453): > 400 µg/mL

C[Si]1(C)OB(O)c2cc(F)c(SCCC(=O)Nc3ncccn3)c(F)c21 [Compound 9, 3-((5,7-Difluoro-3-hydroxy-1,1-dimethyl-1,3-dihydrobenzo[c][1,2,5]oxasilaborol-6-yl)thio)-N-(pyrimidin-2-yl)propanamide]
MIC [1, 3]: > 400 µg/mL
MIC (P. mirabilis ATCC 12453): > 400 µg/mL

C[Si]1(C)OB(O)c2ccc(SC3CC(=O)NC3=O)c(F)c21 (stereo not shown) [Compound 13, 3-((7-Fluoro-3-hydroxy-1,1-dimethyl-1,3-dihydrobenzo[c][1,2,5]oxasilaborol-6-yl)thio)pyrrolidine-2,5-dione]
diameter of inhibition zone [1, 4]: 19 mm
MBC [1, 3]: 50 µg/mL (≈ 154 µM)
MIC [1, 3]: 25 µg/mL (≈ 76.9 µM)
diameter of inhibition zone (P. mirabilis ATCC 12453; [4]): 18 mm
-fold reduction of MIC in the presence of PAβN (P. mirabilis ATCC 12453; [5]): 4 -fold
MIC (P. mirabilis ATCC 12453): 400 µg/mL (≈ 1230 µM)

C[Si]1(C)OB(O)c2ccc(SCCC(=O)OCCCCCC[n+]3ccccc3)c(F)c21 [Compound 19, 1-(6-((3-((7-Fluoro-3-hydroxy-1,1-dimethyl-1,3-dihydrobenzo[c][1,2,5]oxasilaborol-6-yl)thio)propanoyl)oxy)hexyl)pyridin-1-ium trifluoromethanesulfonate]
MIC [1, 3]: > 400 µg/mL
MIC (P. mirabilis ATCC 12453): > 400 µg/mL

C[Si]1(C)OB(O)c2cc(F)c(SCCC(=O)Nc3cnccn3)c(F)c21 [Compound 10, 3-((5,7-Difluoro-3-hydroxy-1,1-dimethyl-1,3-dihydrobenzo[c][1,2,5]oxasilaborol-6-yl)thio)-N-(pyrazin-2-yl)propanamide]
MIC [1, 3]: > 400 µg/mL
MIC (P. mirabilis ATCC 12453): > 400 µg/mL

COC(=O)CCSc1ccc2c(c1F)[Si](C)(C)OB2O [Compound 4, Methyl 3-((7-fluoro-3-hydroxy-1,1-dimethyl-1,3-dihydrobenzo[c][1,2,5]oxasilaborol-6-yl)thio)propanoate]
-fold reduction of MIC in the presence of PAβN [1, 5]: 2 -fold
MIC [1, 3]: > 400 µg/mL
MIC (P. mirabilis ATCC 12453): > 400 µg/mL
